Experiments:
[1] = target: T1, Sodium channel protein type 5 subunit alpha (Homo sapiens, UniProt Q14524); experiment: (§1) Inhibition of 0.1 Hz stimulated human Nav1.5alpha expressed in HEK293 cells assessed as inhibition of late sodium current with 3 compound additions for 7 to 8 mins at holding potential -120 mV in presence of late sodium current activator tefluthrin/ATX2 measured immediately after third compound addition by PatchXpress method; type: cell-based
[2] = Half life in rat microsomes; type: ADME, Microsome
[3] = target: Sodium channel protein type 1 subunit alpha (Homo sapiens, UniProt P35498); experiment: Inhibition of 10 Hz stimulated Nav1.1 (unknown origin) assessed as inhibition of peak sodium current at 10 uM by automated patch clamp method relative to control
[4] = target: T1, Sodium channel protein type 5 subunit alpha; conditions: HEK293, human, read-out: INH
Description: Inhibition of 0.1 Hz stimulated human Nav1.5alpha expressed in HEK293 cells assessed as inhibition of late sodium current at 10 uM with 3 compound additions for 7 to 8 mins at holding potential -120 mV in presence of late sodium current activator tefluthrin/ATX2 measured immediately after third compound addition by PatchXpress method relative to control

[5] = Half life in human microsomes; type: ADME, Microsome
[6] = Half life in dog microsomes; type: ADME, Canis lupus familiaris, Microsome
[7] = target: T2, Nav1.5 (peak sodium current, use-dependent block) (Homo sapiens, UniProt Q14524); experiment: (§2) Inhibition of 3 Hz stimulated human Nav1.5alpha expressed in HEK293 cells assessed as use dependent block of peak sodium current at 1 uM with 3 compound additions at 60 sec intervals at holding potential -100 mV incubated for 320 sec after third compound addition followed by second period of 3 Hz stimulation by PatchXpress method relative to control; type: cell-based; conditions: HEK293 cells expressing human Nav1.5alpha
T2 sequence (Q14524 whole entry): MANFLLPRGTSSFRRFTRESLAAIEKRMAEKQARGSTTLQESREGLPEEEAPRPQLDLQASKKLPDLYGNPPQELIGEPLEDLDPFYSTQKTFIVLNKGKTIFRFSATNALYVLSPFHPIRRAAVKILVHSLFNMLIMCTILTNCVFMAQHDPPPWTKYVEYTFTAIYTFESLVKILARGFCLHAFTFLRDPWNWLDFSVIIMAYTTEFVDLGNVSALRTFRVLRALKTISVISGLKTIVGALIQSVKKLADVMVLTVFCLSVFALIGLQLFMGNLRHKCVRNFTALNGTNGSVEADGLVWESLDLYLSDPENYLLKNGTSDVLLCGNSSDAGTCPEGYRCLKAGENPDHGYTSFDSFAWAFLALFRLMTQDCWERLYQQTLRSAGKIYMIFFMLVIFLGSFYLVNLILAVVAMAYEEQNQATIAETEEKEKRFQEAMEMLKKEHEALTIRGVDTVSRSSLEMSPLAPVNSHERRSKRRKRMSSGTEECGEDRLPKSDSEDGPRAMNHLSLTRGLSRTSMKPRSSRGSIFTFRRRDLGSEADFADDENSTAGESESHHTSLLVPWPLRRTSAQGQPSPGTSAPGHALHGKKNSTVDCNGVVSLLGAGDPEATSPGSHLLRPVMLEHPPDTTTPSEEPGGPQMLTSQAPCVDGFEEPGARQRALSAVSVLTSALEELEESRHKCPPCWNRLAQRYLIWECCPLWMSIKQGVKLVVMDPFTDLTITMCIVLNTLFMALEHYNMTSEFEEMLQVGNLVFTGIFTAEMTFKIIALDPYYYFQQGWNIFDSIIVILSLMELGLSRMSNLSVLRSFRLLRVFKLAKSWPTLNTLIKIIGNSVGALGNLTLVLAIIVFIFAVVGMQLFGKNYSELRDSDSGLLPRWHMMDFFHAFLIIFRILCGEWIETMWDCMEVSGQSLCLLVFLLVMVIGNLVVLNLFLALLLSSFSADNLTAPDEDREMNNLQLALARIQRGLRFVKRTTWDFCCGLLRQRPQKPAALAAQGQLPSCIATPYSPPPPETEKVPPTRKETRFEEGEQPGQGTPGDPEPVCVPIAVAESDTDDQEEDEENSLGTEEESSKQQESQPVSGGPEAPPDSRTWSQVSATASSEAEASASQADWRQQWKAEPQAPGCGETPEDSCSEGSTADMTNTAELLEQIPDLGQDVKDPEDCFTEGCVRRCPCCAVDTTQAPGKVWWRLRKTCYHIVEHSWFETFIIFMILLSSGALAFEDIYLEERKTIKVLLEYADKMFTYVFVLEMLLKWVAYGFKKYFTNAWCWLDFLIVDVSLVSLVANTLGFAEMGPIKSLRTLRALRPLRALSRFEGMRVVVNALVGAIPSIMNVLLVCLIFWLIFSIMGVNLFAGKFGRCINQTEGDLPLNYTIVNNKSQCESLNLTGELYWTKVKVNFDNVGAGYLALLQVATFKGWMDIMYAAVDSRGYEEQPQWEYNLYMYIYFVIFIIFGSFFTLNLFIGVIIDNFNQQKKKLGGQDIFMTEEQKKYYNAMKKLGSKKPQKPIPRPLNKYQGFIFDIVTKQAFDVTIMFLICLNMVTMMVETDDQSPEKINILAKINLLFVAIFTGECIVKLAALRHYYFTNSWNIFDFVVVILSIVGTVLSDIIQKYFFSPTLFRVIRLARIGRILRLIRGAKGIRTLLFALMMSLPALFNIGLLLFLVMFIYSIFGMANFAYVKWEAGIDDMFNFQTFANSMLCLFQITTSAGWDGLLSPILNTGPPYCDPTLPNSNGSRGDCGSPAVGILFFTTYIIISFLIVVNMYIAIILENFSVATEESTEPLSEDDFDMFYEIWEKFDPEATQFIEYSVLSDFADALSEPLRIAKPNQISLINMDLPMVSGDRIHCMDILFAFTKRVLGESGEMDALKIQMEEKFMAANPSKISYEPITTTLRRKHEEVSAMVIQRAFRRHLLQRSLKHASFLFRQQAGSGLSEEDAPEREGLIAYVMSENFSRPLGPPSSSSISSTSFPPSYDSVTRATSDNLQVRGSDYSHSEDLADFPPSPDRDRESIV

[8] = Lipophilicity, log D of compound; type: physicochemical; conditions: octanol/water
[9] = target: T2, Nav1.5 (peak sodium current, use-dependent block); experiment: as §2, with “at 10” for “at 1”; type: cell-based; conditions: HEK293 cells expressing human Nav1.5alpha
[10] = target: T1, Sodium channel protein type 5 subunit alpha; experiment: as §1, with “sodium current at 300 nM with 3” for “sodium current with 3”, “PatchXpress method relative to control” for “PatchXpress method”; type: cell-based

T1 sequence (Q14524 whole entry): as above

Row | Structure (SMILES) | IC50 [1] [µM] | half-life [2] [h] | inhibition [3] [%] | inhibition at 10 µM [4] [%] | half-life [5] [h] | half-life [6] [h] | inhibition at 320 s, 1 µM [7] [%] | logD [8] | inhibition at 320 s, 10 µM [9] [%] | inhibition at 0.3 µM [10] [%]
1 | Cn1cnc(Cn2nc3ccc(-c4ccc(OC(F)(F)F)cc4)cn3c2=O)n1 | > 10 | – | – | – | – | – | – | – | – | –
2 | Cc1coc(Cn2nc3ccc(-c4ccc(OC(F)(F)F)cc4)cn3c2=O)n1 | 2.5 | 0.683 | 28 | ≥ 70 | 2.4 | 2.67 | – | – | – | –
3 | Cc1nc(Cn2nc3ccc(-c4ccc(Oc5ccc(F)cc5)cc4)cn3c2=O)no1 | 541 | 2.42 | 65 | ≥ 70 | 3.45 | 2.78 | 46 | – | – | –
4 | O=c1n(Cc2nc(C3CC3)co2)nc2ccc(-c3ccc(OC(F)(F)F)cc3)cn12 | 3 | 0.65 | – | ≥ 70 | 0.65 | 1.8 | – | – | – | –
5 | Cc1cc(Cn2nc3ccc(-c4ccc(OC(F)(F)F)cc4)cn3c2=O)on1 | > 10 | – | – | – | – | – | – | – | – | –
6 | CCc1noc(Cn2nc3ccc(-c4ccc(OC(F)(F)F)cc4)cn3c2=O)n1 | 4 | – | – | ≥ 70 | – | – | – | – | – | –
7 | O=c1n(Cc2noc(CO)n2)nc2ccc(-c3ccc(Oc4ccc(F)cc4)cc3)cn12 | 981 | 0.533 | 56 | ≥ 70 | 1.35 | 3.02 | – | 2.8 | 21 | –
8 | Cc1nc(Cn2nc3ccc(-c4ccc(OC(F)(F)F)cc4)cn3c2=O)no1 | 3.3 | 6.05 | 27 | ≥ 70 | 6.58 | – | – | – | 10 | –
9 | Cc1nc(Cn2nc3ccc(-c4ccc(Oc5ccc(Cl)cc5)cc4)cn3c2=O)no1 | – | 6.5 | 79 | ≥ 70 | 6.58 | 5.9 | 40 | – | – | 60
10 | Cc1noc(Cn2nc3ccc(-c4ccc(Oc5ccc(Cl)cc5)cc4)cn3c2=O)n1 | 134 | 0.567 | 42 | ≥ 70 | 0.75 | 1.57 | 47 | 3.4 | – | –

From ChEMBL document CHEMBL3808373 (Bioorg Med Chem Lett, 2016)
